{"source": "patent US20240327433A1", "about": "“PYRIMIDOPYRAN COMPOUND” (Medshine Discovery Inc., priority 2021, published 2024)", "key": {"[1]": {"assay": "Pharmacokinetic study of oral and intravenously injected compounds in CD-1 mouse", "type": "in vivo", "description": "To assay the pharmacokinetics of oral and intravenously injected compounds in CD-1 mouse. The assay compound was mixed with 5% DMSO+95% (10% HP-β-CD) aqueous solution. The mixture was vortexed and sonicated to prepare a clear solution of 0.5 mg/mL (intravenous) or a clear solution of 3 mg/mL (oral). The clear solution was filtered by a microporous membrane for use. […] Whole blood was collected for a certain period of time, and prepared to obtain plasma. Drug concentration was analyzed by LC-MS/MS method, and pharmacokinetic parameters were calculated by Phoenix WinNonlin software (Pharsight, USA)."}, "[2]": {"assay": "PPB assay: recovery rate in the dialysis device (five species plasma)", "type": "in vitro ADME", "conditions": "CD-1 (mouse), Sprague-Dawley (rat), Beagle (dog), cynomolgus monkey, human", "description": "(§1) The protein binding rates of the compound in the plasma of CD-1 mouse, Sprague-Dawley rat, Beagle dog, cynomolgus monkey and human were determined by equilibrium dialysis method. The plasmas of the above-mentioned five species were formulated to plasma samples with a compound concentration of 2 μM. The plasma samples were placed in a 96-well rapid equilibrium dialysis device, and dialyzed against phosphate buffered saline at 37±1° C. for 4 h. In this assay, warfarin was used as a control compound. The concentrations of analytes in plasma and dialysis buffer were determined by LC-MS/MS mothed."}, "[3]": {"assay": "Plasma protein binding (PPB), equilibrium dialysis, human plasma", "type": "in vitro ADME", "conditions": "2 μM, unbound rate", "description": "(§2) The protein binding rates of the compound in the plasma of CD-1 mouse, Sprague-Dawley rat, Beagle dog, cynomolgus monkey and human were determined by equilibrium dialysis method.\nas §1, with “The” for “The protein binding rates of the compound in the plasma of CD-1 mouse, Sprague-Dawley rat, Beagle dog, cynomolgus monkey and human were determined by equilibrium dialysis method. The”"}, "[4]": {"assay": "Plasma protein binding (PPB), equilibrium dialysis, Sprague-Dawley rat plasma", "type": "in vitro ADME", "conditions": "2 μM, unbound rate", "description": "as §2\nas §1, with “The” for “The protein binding rates of the compound in the plasma of CD-1 mouse, Sprague-Dawley rat, Beagle dog, cynomolgus monkey and human were determined by equilibrium dialysis method. The”"}, "[5]": {"assay": "Plasma protein binding (PPB), equilibrium dialysis, CD-1 mouse plasma", "type": "in vitro ADME", "conditions": "2 μM, unbound rate", "description": "as §2\nas §1, with “The” for “The protein binding rates of the compound in the plasma of CD-1 mouse, Sprague-Dawley rat, Beagle dog, cynomolgus monkey and human were determined by equilibrium dialysis method. The”"}, "[6]": {"system": "p-ERK in AGS cells", "assay": "Assay of p-ERK inhibition in AGS cells (HTRF)", "type": "cell-based", "conditions": "Homo sapiens, 3 hours incubation", "description": "• 1) AGS cells were inoculated in a transparent 96-well cell culture plate, and each well contained […] of cell suspension and 10000 cells. The cell plate was inoculated in a carbon dioxide incubator at 37° C. overnight; • 2) After completion of the incubation, the cell supernatant was discarded. 80 μL of medium containing 0.02% serum was added to each well. The cell plate was incubated in a carbon dioxide incubator at 37° C. overnight; • 3) 2 μL of the compound was weighed and added to 78 μL of the cell medium. After the mixture was mixed thoroughly, 20 μL of the solution of compound was weighed and added to the corresponding well of the cell plate. The cell plate was placed back to the carbon dioxide incubator and incubated for another 3 hours; • 4) After completion of the incubation, the cell supernatant was discarded. 50 μL of 1× cell lysate was added to each well. […] The mixture was incubated at room temperature for at least 4 hours; • 7) After completion of the incubation, HTRF was read with multi-label analyzer: excitation: 320 nm, emission: 615 nm, 665 nm; • 8). IC50 of the compound to be assayed was calculated."}, "[7]": {"system": "KRAS^G12D GP2D", "assay": "Anti-cell proliferation effect in tumor cell line GP2D (CellTiter-Glo 3D)", "type": "cell-based", "conditions": "120 hours", "description": "In this assay, the effect of the compounds on inhibiting cell proliferation was studied by detecting the effect of the compounds on the cell activity in vitro in the tumor cell lines AsPC-1 and GP2D.\nThe tumor cell lines were cultured in a 37° C., 5% CO2 incubator according to the culture conditions indicated in the culture method. Cells were passaged regularly, and cells in logarithmic growth phase were used for plating.\nCells were stained with trypan blue and viable cells were counted.\nThe cell concentration was adjusted to an appropriate concentration.\nTo each well of a ULA culture plate was added 135 μL of cell suspension. To the blank control well was added the same volume of culture medium without cells.\nAfter plating, the ULA culture plate was immediately centrifuged at room temperature at 1000 rpm for 10 minutes. Note: After completion of the centrifugation, subsequent operations must be processed carefully to avoid unnecessary shocks.\nThe culture plate was incubated in a 37° C., 5% CO2, 100% relative humidity incubator overnight.\n10× compound working solution (10× working solution in DMSO) was formulated, and then to the ULA culture plate was add 15 μL of 10× compound working solution, and to the vehicle control and blank control was added 15 μL of DMSO-cell culture medium mixture, respectively. […]\nThe luminescent signal was detected on a 2104 EnVision plate reader. […]"}, "[8]": {"conditions": "male, CD-1, plasma, intravenous (IV), about 2 mg/kg"}, "[9]": {"conditions": "male, CD-1, plasma, oral (PO), about 30 mg/kg"}}, "note": "Where a name gives a salt, the structure may show the parent alone."}
{"smiles": "Cc1cc(N)c(F)c(C2Cc3nc(OC[C@@]45CCCN4C[C@H](F)C5)nc(N4CC5CCC(C4)N5)c3CO2)c1C(F)(F)F", "note": "(some centres unmarked) [Compound 1 hydrochloride]", "values": [{"measurement": "AUC(0-t)", "setting": "[1]; [8]", "value": 0.353, "unit": "µM·h"}, {"measurement": "C0", "setting": "[1]; [8]", "value": 1400, "unit": "nM"}, {"measurement": "Vd", "setting": "[1]; [8]", "value": 148, "unit": "L/kg"}, {"measurement": "clearance", "setting": "[1]; [8]", "value": 106, "unit": "mL/min/kg"}, {"measurement": "half-life", "setting": "[1]; [8]", "value": 23.1, "unit": "h"}, {"measurement": "AUC(0-inf)", "setting": "[1]; [9]", "value": 1.35, "unit": "µM·h"}, {"measurement": "Cmax", "setting": "[1]; [9]", "value": 228, "unit": "nM"}, {"measurement": "F", "setting": "[1]; oral (PO), about 30 mg/kg, oral bioavailability", "value": 25.5, "unit": "%"}, {"measurement": "recovery at 4 h, 2 μM", "setting": "[2]", "value": "82.4 to 110", "unit": "%"}, {"measurement": "Unbound PPB H", "setting": "[3]", "value": 7.0, "unit": "%"}, {"measurement": "Unbound PPB R", "setting": "[4]", "value": 3.0, "unit": "%"}, {"measurement": "Unbound PPB M", "setting": "[5]", "value": 2.7, "unit": "%"}, {"measurement": "IC50", "setting": "[6]", "value": 45, "unit": "nM"}, {"measurement": "IC50", "setting": "[7]", "value": 37, "unit": "nM"}]}
